Three compounds from ChEMBL document CHEMBL1154133, “Pestalazines and pestalamides, bioactive metabolites from the plant pathogenic fungus Pestalotiopsis theae” (J Nat Prod, 2008) can be followed below.

Structures are written as SMILES. pEC50, pIC50: −log10 of the molar value. In brackets after ≈: the same amount, converted by molar mass. Where a name gives a salt, the structure may show the parent alone.

Data set [1] deals with Aspergillus fumigatus. Description: Antifungal activity against Aspergillus fumigatus ATCC 10894 by alamar blue assay. The data set is classed as functional.
Data set [2] relates to Human immunodeficiency virus 1. Description: Antiviral activity against HIV1 LAI infected in human C8166 cells assessed as inhibition of viral replication by ELISA. The data set is classed as functional, organism-based. The conditions noted are these: Human immunodeficiency virus 1, LAI. (In an ELISA, binding on a coated surface is turned into a signal by an enzyme label.)

A short description of data set [3]: Cytotoxicity against human C8166 cells after 4 days by MTT assay. The data set is classed as cell-based. (In general: Tetrazolium dyes change colour on reduction, which living cells bring about.)
Data set [4] relates to Aspergillus fumigatus. Description: Antifungal activity against Aspergillus fumigatus ATCC 10894 by microplate reader assay. The data set is classed as functional, organism-based.

One may read the MIC as the smallest concentration in the dilution series that meets the test's criterion for growth inhibition. A low value points to greater potency. Take `OC(Cn1cncn1)(Cn1cncn1)c1ccc(F)cc1F` [FLUCONAZOLE]: in the data set on Aspergillus fumigatus [1], the minimal inhibitory concentration (MIC) was found to be 163 µM (≈ 50 µg/mL).
The pEC50 is the negative decadic logarithm of the EC50, by convention in mol/L. As a reminder, the CC50 is the concentration that lowers cell viability or growth by half. Read a high CC50 as lower toxicity to the cells. For orientation: pIC50 means the negative decadic logarithm of the IC50, by convention in mol/L. Low values mean a high IC50, high ones a low IC50. Consider `C[C@@H](CC(=O)NC(=O)c1coc(Cc2ccccc2)cc1=O)C(=O)O` [PESTALAMIDE A], for which the negative logarithm of the EC50 (pEC50) in data set [2] is 4.19. For the same compound, the CC50 at 96 h in data set [3] was over 100000 nM. In addition, in the data set with Aspergillus fumigatus [4], the pIC50 is 5.82. The compound also came in with a minimal inhibitory concentration (MIC) in the data set with Aspergillus fumigatus [1] of 57.8 µM (≈ 19.8 µg/mL).
On to `CC(C)(C)NC(=O)[C@@H]1CN(Cc2cccnc2)CCN1C[C@@H](O)C[C@@H](Cc1ccccc1)C(=O)N[C@H]1c2ccccc2C[C@H]1O` [INDINAVIR SULFATE], for which, in data set [2], the pEC50 is 8.26.
